Experimental findings from publication PMC9961652 (International Journal of Molecular Sciences, 2023) are described below.

Structures are written as SMILES.

The test system of one assay is washed human platelets. The assay is described as follows: Platelet aggregation induced by AA, U46619, ADP or thrombin. In kind it is cell-based. The note with it: 10 µM S-G04 or 20 µM R-G04, 2 min pre-incubation. From the text: TxA2 is a metabolite derived from AA via the COX pathway, a potent vasoconstrictor, and a platelet agonist that results in irreversible platelet aggregation. […] The data in Figure 7 show the potential of the RhoA inhibitors to inhibit platelet aggregation mediated by diverse agonists, i.e., TxA2, ADP, U46619, AA, and thrombin, and ATP secretion, highlighting the potential to inhibit multiple-agonist-mediated platelet activation pathways at micromolar concentrations.
(A–D) Washed human platelets were pre-incubated with 10 µM S-G04 or 20 µM R-G04 for 2 min before being stimulated with Arachidonic Acid (AA), U46619, ADP, or Thrombin. The % platelet aggregation was measured 5 min after agonist stimulation. (E) Washed human platelets were pre-incubated with 10 µM S-G04 or 20 µM R-G04 for 2 min and with Chrono-lume® for 30 s at 37 °C before being stimulated with 0.1 U/mL Thrombin. […] TxB2 formation was determined using a TxB2 ELISA kit. The differences among DMSO, R-G04, and S-G04 were analyzed using t-test, and the results are shown as means ± SDs of three independent experiments. (* p < 0.05, ** p < 0.01, *** p < 0.001, and **** p < 0.0001).
The in vitro antiplatelet activity of the compounds was assayed on washed human platelets using light transmission aggregometry. Platelet aggregation was performed using a 4-channel Lumi-aggregometer (Chronolog, PA, USA) at 37 °C and stirring speed of 900 rpm. A volume of 250 µL of washed human platelets (2.5 × 10^8/mL) was pre-warmed to 37 °C along with the compounds or DMSO (0.1%) for 2 min before the addition of agonists such as collagen, AA, U46619 (a stable synthetic analog of thromboxane A2), ADP, and thrombin. For ATP secretion, platelets were pre-incubated with a luciferin/luciferase kit (Chrono-lume®) for 30 s at 37 °C before the addition of the agonist. The reactions were allowed to proceed for at least 4 min, and the results of platelet aggregation and ATP secretion were determined using Aggrolink software. Platelet aggregation was expressed as the maximum change in the light transmission, where the 100% value corresponded to treatment with the agonist alone. Compounds were evaluated in triplicate at nine compound concentrations ranging from 50 µM to 1 µM. The half-maximal inhibitory concentration (IC50) value was calculated as the concentration of the inhibitor causing 50% inhibition of aggregation.

A further assay deals with RhoA. The assay is described as follows: RhoA-GTP formation, GST-Rhotekin effector pull-down assay in collagen-stimulated platelets. In kind it is cell-based, human. The note with it: R-G04 10 µM or 50 µM, S-G04 3 µM or 20 µM; collagen 1 µg/mL. As for the experimental part: Next, the ability of the six compounds to suppress RhoA activity in platelets was assessed by subjecting them to a GST (Glutathione-S-transferase)-Rhotekin effector pull-down assay. The compounds were incubated with washed human platelets for 2 min before being stimulated with 1 µg/mL collagen. The analogs inhibited the activation of RhoA at the 20 µM concentration (Figure 2A,B). […] After confirming that these analogs could prevent RhoA activation and the phosphorylation of the MLC, their ability to disrupt complex-formation between RhoA and LARG was tested. […] These findings indicate that the active analogs inhibit RhoA activation by disrupting the binding between RhoA and its GEF.
(A,B) Washed human platelets were incubated with collagen (1 µg/mL) for 4 min, and the levels of RhoA-GTP formation were quantified with a GST-Rhotekin effector pull-down assay. The platelets were pre-incubated with 20 µM UC-177618, UC-177619, UC-177628, UC-177629, […], or […] for 2 min before being stimulated with collagen. The addition of ice-cold lysis buffer terminated the reaction. […] Relative amounts of the GTP-bound form of RhoA were quantified with densitometry measurements of total RhoA (T-RhoA) and normalized to untreated platelets. (C,D) The addition of 20 µM of active Rhosin-related compounds to washed human platelets 2 min before stimulation with collagen blocked the phosphorylation of the myosin light chain (p-MLC). The reactions were terminated after 4 min by adding 4x Laemmli sample buffer. The samples were processed for Western blotting and probed for MLC and p-MLC, and phosphorylation was quantified by measuring the densitometry of total MLC (T-MLC). The differences between DMSO- and Rhosin-related compounds were analyzed with t-test, and the results are shown as means ± SDs of three independent experiments. (* p < 0.05, ** p < 0.01, *** p < 0.001, and **** p < 0.0001).
The relative levels of RhoA-GTP in washed human platelets were quantified with effector domains GST-Rhotekin pull-down assays as previously reported. A volume of 250 µL of washed human platelets (2.5 × 10^8/mL) was pre-warmed to 37 °C along with the compounds or DMSO (0.1%) for 2 min before being stimulated with collagen (1 µg/mL). The reactions were terminated 4 min after collagen stimulation by adding ice-cold lysis buffer (20 mM Tris·HCl (pH 7.6), 100 mM NaCl, 1% Triton X-100, 0.2% Sodium Deoxycholate, 10 mM MgCl2, 1 mM dithiothreitol, 1x protease inhibitor cocktail, and 1x phosphatase inhibitor cocktail). The supernatants were collected and subjected to the GST-Rhotekin pull-down assay. The total cell lysates were also blotted in parallel. GTP-bound RhoA was quantitatively detected with Western blotting using an anti-RhoA antibody. The relative amounts of RhoA were quantified with densitometry measurements and normalized to the untreated platelets.

On to `N[C@H](Cc1c[nH]c2ccccc12)C(=O)N/N=C/c1ccc2nccnc2c1` [R-G04], for which, in the assay on washed human platelets, the AA-induced platelet aggregation result was “failed to have the same inhibitory effect”, the ADP-induced platelet aggregation result was “significantly inhibited ADP-induced platelet aggregation”, the U46619-induced platelet aggregation entry was “failed to have the same inhibitory effect” and the thrombin-induced platelet aggregation entry is listed as “failed to have the same inhibitory effect”. Further, the RhoA-GTP formation result in the assay with RhoA was “inhibited RhoA-GTP formation in a concentration-dependent manner”.

Turning to `N[C@@H](Cc1c[nH]c2ccccc12)C(=O)N/N=C/c1ccc2nccnc2c1` [S-G04], in the assay on washed human platelets, the AA-induced platelet aggregation result was “suppressed the platelet activation”, the ADP-induced platelet aggregation entry is recorded as “significantly inhibited ADP-induced platelet aggregation”, the U46619-induced platelet aggregation result was “suppressed the platelet activation” and the thrombin-induced platelet aggregation entry is reported as “suppressed the platelet activation”. Also, in the assay on RhoA, the RhoA-GTP formation result is given as “inhibited RhoA-GTP formation in a concentration-dependent manner”.
